Measured values taken from US7943607B2, “Heteroaryl benzamide derivatives for use as GLK activators in the treatment of diabetes” (AstraZeneca AB, priority 2005, dated 2011).

Legend:
[1] = biological target: T1, recombinant human pancreatic GLK (Homo sapiens, UniProt P35557); assay: biochemical
T1 sequence (P35557 1-465): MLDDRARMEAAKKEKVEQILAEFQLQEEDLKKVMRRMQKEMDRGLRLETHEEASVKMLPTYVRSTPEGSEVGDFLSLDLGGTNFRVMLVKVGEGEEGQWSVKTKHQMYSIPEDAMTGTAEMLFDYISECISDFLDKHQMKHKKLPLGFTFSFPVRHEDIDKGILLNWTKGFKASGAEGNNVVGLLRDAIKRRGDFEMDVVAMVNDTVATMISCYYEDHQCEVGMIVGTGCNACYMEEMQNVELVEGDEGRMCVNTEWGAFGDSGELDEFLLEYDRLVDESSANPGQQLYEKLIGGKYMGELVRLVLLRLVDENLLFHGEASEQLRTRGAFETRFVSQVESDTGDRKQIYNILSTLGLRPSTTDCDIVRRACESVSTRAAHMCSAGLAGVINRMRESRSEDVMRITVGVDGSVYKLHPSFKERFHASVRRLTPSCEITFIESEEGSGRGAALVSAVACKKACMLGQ

[2] = test system: Zucker obese fa/fa rats; assay: Oral Glucose Tolerance Test (OGTT); format: in vivo, rat; settings: 10 mg/kg; given orally 120 minutes before oral glucose 2 g/kg; Zucker obese fa/fa rats on high fat diet
Description: Oral glucose tolerance tests were done on conscious Zucker obese fa/fa rats (age 12-13 weeks or older) fed a high fat diet (45% kcal fat) for at least two weeks prior to experimentation. The animals were fasted for 2 hours before use for experiments. A test compound or a vehicle was given orally 120 minutes before oral administration of a glucose solution at a dose of 2 g/kg body weight. Blood glucose levels were measured using a Accucheck glucometer from tail bled samples taken at different time points before and after administration of glucose (time course of […]). A time curve of the blood glucose levels was generated and the area-under-the-curve (AUC) for 120 minutes was calculated (the time of glucose administration being time zero). Percent reduction in glucose excursion was determined using the AUC in the vehicle-control group as zero percent reduction.

C[C@@H](CO)Oc1cc(Oc2cc3c(cc2F)S(=O)(=O)CCCO3)cc(C(=O)Nc2ccn(C)n2)c1 [Example 3, 3-[(7-Fluoro-5,5-dioxido-3,4-dihydro-2H-1,5-benzoxathiepin-8-yl)oxy]-5-[(1S)-2-hydroxy-1-methylethoxy]-N-(1-methyl-1H-pyrazol-3-yl)benzamide]
EC50 [1]: 0.038 µM
OGTT activity (percent reduction in glucose excursion, AUC vs vehicle control) [2]: 29%
